The values below come from US20240270751A1, “Pyrazolopyridinone Compounds” (BeiGene Ltd., priority 2021, published 2024).

One assay addresses DGKα (Homo sapiens (Human), UniProt P23743). Put plainly: Biochemical DGK IC50 assay, DGKα ADP-Glo assay. The following applies: 7.5 nM enzyme, 140 μM ATP, 80 μM DAG. The gist of the method:
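Compounds at final 1.55˜10000 nM or 23.3˜150000 nM were tested against full-length DGKα. Substrate was lipid micelles of DAG and PS resuspended in 25 mM HEPES pH 7.0 with 0.5 mM EDTA and 160 mM octyl β-D-glucopyranoside. ADP formed was detected by ADP-Glo.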
On the technique in general: In ADP-Glo the light output rises with the ADP produced.

The next assay has as its target DGKζ (Homo sapiens (Human), UniProt Q13574). Put plainly: Biochemical DGK IC50 assay, DGKζ ADP-Glo assay. The following applies: 0.5 nM enzyme, 140 μM ATP, 80 μM DAG; read-out: DGKζ ADP-Glo assay IC50. An outline of the steps: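 ADP formation measured by ADP-Glo luminescence, with test compounds at final 1.55–10000 nM or 23.3–150000 nM. Enzyme: purified full-length human DGKζ from Sf9 insect cells; substrate: DAG/PS micelles in 25 mM HEPES pH 7.0, 0.5 mM EDTA, octyl glucoside.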

Chain of DGKα (P23743 whole entry): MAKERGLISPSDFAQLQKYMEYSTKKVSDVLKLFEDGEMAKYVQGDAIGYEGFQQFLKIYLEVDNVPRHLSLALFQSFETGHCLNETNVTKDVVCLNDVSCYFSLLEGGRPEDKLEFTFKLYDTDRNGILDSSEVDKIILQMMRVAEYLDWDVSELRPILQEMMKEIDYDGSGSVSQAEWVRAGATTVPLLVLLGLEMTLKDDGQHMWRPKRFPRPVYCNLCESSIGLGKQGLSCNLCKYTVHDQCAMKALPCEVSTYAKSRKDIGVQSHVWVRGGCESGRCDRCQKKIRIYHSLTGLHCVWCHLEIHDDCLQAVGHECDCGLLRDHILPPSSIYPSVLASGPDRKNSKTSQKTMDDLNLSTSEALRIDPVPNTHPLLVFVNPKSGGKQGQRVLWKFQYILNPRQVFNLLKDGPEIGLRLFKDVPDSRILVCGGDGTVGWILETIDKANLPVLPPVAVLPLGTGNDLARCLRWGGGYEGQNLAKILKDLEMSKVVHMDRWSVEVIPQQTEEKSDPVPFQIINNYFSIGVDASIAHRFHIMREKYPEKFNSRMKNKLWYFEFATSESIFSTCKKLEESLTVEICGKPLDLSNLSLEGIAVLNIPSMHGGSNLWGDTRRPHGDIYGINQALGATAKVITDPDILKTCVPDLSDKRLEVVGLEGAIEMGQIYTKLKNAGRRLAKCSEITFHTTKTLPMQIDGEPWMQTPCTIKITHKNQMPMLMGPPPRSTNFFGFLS
Chain of DGKζ (Q13574 other isoform, or with tags, fused parts or gaps): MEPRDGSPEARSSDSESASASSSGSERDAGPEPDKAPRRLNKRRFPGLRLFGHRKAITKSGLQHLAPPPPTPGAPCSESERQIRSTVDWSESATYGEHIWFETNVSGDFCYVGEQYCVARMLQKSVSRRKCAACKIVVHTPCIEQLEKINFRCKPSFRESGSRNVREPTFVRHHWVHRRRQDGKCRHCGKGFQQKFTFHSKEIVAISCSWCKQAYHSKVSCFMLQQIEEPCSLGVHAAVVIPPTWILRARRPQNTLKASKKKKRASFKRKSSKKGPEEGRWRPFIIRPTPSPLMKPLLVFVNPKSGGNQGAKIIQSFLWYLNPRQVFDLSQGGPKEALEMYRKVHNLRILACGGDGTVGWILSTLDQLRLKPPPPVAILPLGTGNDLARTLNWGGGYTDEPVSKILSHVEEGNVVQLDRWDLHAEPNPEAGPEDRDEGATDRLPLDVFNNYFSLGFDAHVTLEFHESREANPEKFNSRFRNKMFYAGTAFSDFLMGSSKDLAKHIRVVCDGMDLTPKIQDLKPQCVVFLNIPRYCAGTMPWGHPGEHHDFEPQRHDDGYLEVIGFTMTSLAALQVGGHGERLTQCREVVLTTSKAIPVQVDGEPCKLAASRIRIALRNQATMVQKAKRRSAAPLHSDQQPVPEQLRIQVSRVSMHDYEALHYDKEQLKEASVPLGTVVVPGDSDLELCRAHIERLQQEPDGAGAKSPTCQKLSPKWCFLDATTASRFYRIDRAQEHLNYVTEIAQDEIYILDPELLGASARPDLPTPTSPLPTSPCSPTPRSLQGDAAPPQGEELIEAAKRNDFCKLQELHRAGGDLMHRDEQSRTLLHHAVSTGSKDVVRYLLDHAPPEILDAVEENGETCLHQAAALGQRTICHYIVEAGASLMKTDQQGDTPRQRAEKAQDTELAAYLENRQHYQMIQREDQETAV

`CC[C@H]1CN(C(C)c2ccc(F)cc2C#N)[C@H](CC)CN1c1cc(=O)n(C)c2cn(CC#N)nc12` (single isomer, unassigned) [Compound A224b]: the half-inhibitory concentration (IC50) (commonly the point on the concentration scale where inhibition reaches its midpoint) turned out to be 4.15 µM against DGKα and 4.94 µM on DGKζ.
With `CC[C@H]1CN(C(C)c2c(C)cnn2CC)[C@H](CC)CN1c1cc(=O)n(C)c2cn(CC#N)nc12` (single isomer, unassigned) [Compound A227a], the concentration for half-maximal inhibition (IC50) against DGKα and at DGKζ was above 10 µM throughout.
`CC[C@H]1CN(C(C)c2c(C)cnn2CC)[C@H](CC)CN1c1cc(=O)n(C)c2cn(CC#N)nc12` (single isomer, unassigned) [Compound A227b]: the half-inhibitory concentration (IC50) against DGKα is above 10 µM; on DGKζ, 0.691 µM.
On to `CC[C@H]1CN(C(C)c2nc3cccc(C(F)(F)F)c3n2CC)[C@H](CC)CN1c1cc(=O)n(C)c2cn(CC#N)nc12` (single isomer, unassigned) [Compound A230a], for which the half-maximal inhibitory concentration (IC50) is above 10 µM against DGKα and 1.44 µM on DGKζ.
In the same order, the values of `CC[C@H]1CN(C(C)c2nc3cccc(C(F)(F)F)c3n2CC)[C@H](CC)CN1c1cc(=O)n(C)c2cn(CC#N)nc12` (single isomer, unassigned) [Compound A230b] are 6.2 µM and 0.494 µM.
Consider `CC[C@H]1CN(C(C)c2ccc(C(F)(F)F)cc2F)[C@H](CC)CN1c1cc(=O)n(C)c2c[nH]nc12` (single isomer, unassigned) [Compound A231a], for which the figures for the IC50 at DGKα and at DGKζ were 1.12 µM and above 10 µM, respectively.
With `CC[C@H]1CN(C(C)c2ccc(C(F)(F)F)cc2F)[C@H](CC)CN1c1cc(=O)n(C)c2c[nH]nc12` (single isomer, unassigned) [Compound A231b], the concentration for half-maximal inhibition (IC50) is 0.303 µM against DGKα and above 10 µM on DGKζ.
In the same order, the values of `CC(c1ccc(F)cc1C(F)(F)F)N1C[C@H](C)N(c2cc(=O)n(C)c3cn(CC#N)nc23)C[C@H]1C` (single isomer, unassigned) [Compound A236a] are above 10 µM and above 10 µM.
For the molecule `CC(c1ccc(F)cc1C(F)(F)F)N1C[C@H](C)N(c2cc(=O)n(C)c3cn(CC#N)nc23)C[C@H]1C` (single isomer, unassigned) [Compound A236b], the 50% inhibitory concentration (IC50) was found to be 77.4 µM on DGKα and 0.178 µM on DGKζ.
In the same order, the values of `CC#CCn1cc2c(n1)c(N1C[C@@H](CC)N(C(C)c3ccc(F)cc3C(F)(F)F)C[C@@H]1CC)cc(=O)n2C` (single isomer, unassigned) [Compound A238b] are 1.24 µM and 0.256 µM.
In the same order, the values of `C[C@@H]1CN(c2cc(=O)n(C)c3c(C(F)(F)F)n(CC#N)nc23)[C@@H](C)CN1[C@@H](C)c1ccc2nccnc2c1` (single isomer, unassigned) [Compound A243, 2-(7-((2S,5R)-2,5-dimethyl-4-((S)-1-(quinoxalin-6-yl)ethyl)piperazin-1-yl)-4-methyl-5-oxo-3-(trifluoromethyl)-4,5-dihydro-2H-pyrazolo[4,3-b]pyridin-2-yl)acetonitrile or 2-(7-((2S,5R)-2,5-dimethyl-4-((R)-1-(quinoxalin-6-yl)ethyl)piperazin-1-yl)-4-methyl-5-oxo-3-(trifluoromethyl)-4,5-dihydro-2H-pyrazolo[4,3-b]pyridin-2-yl)acetonitrile] are above 10 µM and 1.35 µM.
The like results for `C[C@@H]1CN(c2cc(=O)n(C)c3c(C(F)(F)F)nn(CC#N)c23)[C@@H](C)CN1[C@@H](C)c1ccc2nccnc2c1` (single isomer, unassigned) [Compound A244, 2-(7-((2S,5R)-2,5-dimethyl-4-((S)-1-(quinoxalin-6-yl)ethyl)piperazin-1-yl)-4-methyl-5-oxo-3-(trifluoromethyl)-4,5-dihydro-1H-pyrazolo[4,3-b]pyridin-1-yl)acetonitrile or 2-(7-((2S,5R)-2,5-dimethyl-4-((R)-1-(quinoxalin-6-yl)ethyl)piperazin-1-yl)-4-methyl-5-oxo-3-(trifluoromethyl)-4,5-dihydro-1H-pyrazolo[4,3-b]pyridin-1-yl)acetonitrile] were, in that order, above 10 µM and above 10 µM.
As for `CC(c1ccc2nccnc2c1)N1C[C@H](C)N(c2cc(=O)[nH]c3cn(CC#N)nc23)C[C@H]1C` (single isomer, unassigned) [Compound A260, 2-(7-((2S,5R)-2,5-dimethyl-4-((R)-1-(quinoxalin-6-yl)ethyl)piperazin-1-yl)-5-oxo-4,5-dihydro-2H-pyrazolo[4,3-b]pyridin-2-yl)acetonitrile, or 2-(7-((2S,5R)-2,5-dimethyl-4-((S)-1-(quinoxalin-6-yl)ethyl)piperazin-1-yl)-5-oxo-4,5-dihydro-2H-pyrazolo[4,3-b]pyridin-2-yl)acetonitrile], the IC50 is above 10 µM against DGKα and 0.394 µM at DGKζ.
For `Cc1c2c(nn1CC#N)c(N1C[C@@H](C)N(C(C)c3ccc(F)cc3C(F)(F)F)C[C@@H]1C)nc(=O)n2C` (single isomer, unassigned) [Compound A267a], the concentration for half-maximal inhibition (IC50) against DGKα and on DGKζ was above 10 µM in each case.
As to `Cc1cnc2cc([C@H](C)N3C[C@H](C)N(c4cc(=O)n(C)c5cn(CC#N)nc45)C[C@H]3C)ccc2n1` (single isomer, unassigned) [Compound A269a, 2-(7-((2S,5R)-2,5-dimethyl-4-((S)-1-(2-methylquinoxalin-6-yl)ethyl)piperazin-1-yl)-4-methyl-5-oxo-4,5-dihydro-2H-pyrazolo[4,3-b]pyridin-2-yl)acetonitrile, or 2-(7-((2S,5R)-2,5-dimethyl-4-((R)-1-(2-methylquinoxalin-6-yl)ethyl)piperazin-1-yl)-4-methyl-5-oxo-4,5-dihydro-2H-pyrazolo[4,3-b]pyridin-2-yl)acetonitrile], the values for the 50% inhibitory concentration (IC50) at DGKα and on DGKζ were above 10 µM and 0.365 µM, respectively.
As for `Cc1cnc2cc([C@H](C)N3C[C@H](C)N(c4cc(=O)n(C)c5cn(CC#N)nc45)C[C@H]3C)ccc2n1` (single isomer, unassigned) [Compound A269b, 2-(7-((2S,5R)-2,5-dimethyl-4-((S)-1-(2-methylquinoxalin-6-yl)ethyl)piperazin-1-yl)-4-methyl-5-oxo-4,5-dihydro-2H-pyrazolo[4,3-b]pyridin-2-yl)acetonitrile, or 2-(7-((2S,5R)-2,5-dimethyl-4-((R)-1-(2-methylquinoxalin-6-yl)ethyl)piperazin-1-yl)-4-methyl-5-oxo-4,5-dihydro-2H-pyrazolo[4,3-b]pyridin-2-yl)acetonitrile], the IC50 against DGKα is above 10 µM; on DGKζ, 6.85 µM.
In the same order, the values of `CC[C@H]1CN(C(C)c2ccc(F)cc2C(F)(F)F)[C@H](CC)CN1c1cc(=O)n(C)c2c[nH]nc12` (single isomer, unassigned) [Compound A275a] are above 10 µM and 7.11 µM.
Turning to `CC[C@H]1CN(C(C)c2ccc(F)cc2C(F)(F)F)[C@H](CC)CN1c1cc(=O)n(C)c2c[nH]nc12` (single isomer, unassigned) [Compound A275b], the IC50 against DGKα is above 10 µM; at DGKζ it was 4.39 µM.
As to `CC[C@H]1CN(C(C)c2ccc3nc(OC)cnc3c2)[C@H](CC)CN1c1cc(=O)n(C)c2cn(CC#N)nc12` (single isomer, unassigned) [Compound A281a], the half-maximal inhibitory concentration (IC50) is 6.65 µM against DGKα and 0.077 µM at DGKζ.
In the same order, the values of `CC[C@H]1CN(C(C)c2ccc3nc(O)cnc3c2)[C@H](CC)CN1c1cc(=O)n(C)c2cn(CC#N)nc12` (single isomer, unassigned) [Compound A282a] are 0.182 µM and 5.35 µM.
In the same order, the values of `CC[C@H]1CN(C(C)c2ccc3nc(O)cnc3c2)[C@H](CC)CN1c1cc(=O)n(C)c2cn(CC#N)nc12` (single isomer, unassigned) [Compound A282b] are 10.5 µM and 6.96 µM.
In the same order, the values of `COC(C)c1cc(F)ccc1C(C)N1C[C@H](C)N(c2cc(=O)n(C)c3cn(CC#N)nc23)C[C@H]1C` (single isomer, unassigned) [Compound A286a] are above 10 µM and 2.61 µM.
Regarding `COC(C)c1cc(F)ccc1C(C)N1C[C@H](C)N(c2cc(=O)n(C)c3cn(CC#N)nc23)C[C@H]1C` (single isomer, unassigned) [Compound A286b], the IC50 against DGKα came out at 51.5 µM; at DGKζ, 0.017 µM.
The like results for `CC(c1ccc(F)cc1CC#N)N1C[C@H](C)N(c2cc(=O)n(C)c3cn(CC#N)nc23)C[C@H]1C` (single isomer, unassigned) [Compound A287a] were, in that order, above 10 µM and 9.68 µM.
In the same order, the values of `CC(c1ccc(F)cc1CC#N)N1C[C@H](C)N(c2cc(=O)n(C)c3cn(CC#N)nc23)C[C@H]1C` (single isomer, unassigned) [Compound A287b] are above 10 µM and 0.567 µM.
The like results for `C=CCn1cc2c(n1)c(N1C[C@@H](C)N(C(C)c3ccc4nccnc4c3)C[C@@H]1C)cc(=O)n2C` (single isomer, unassigned) [Compound A299, 2-allyl-7-((2S,5R)-2,5-dimethyl-4-((S)-1-(quinoxalin-6-yl)ethyl)piperazin-1-yl)-4-methyl-2,4-dihydro-5H-pyrazolo[4,3-b]pyridin-5-one, or 2-allyl-7-((2S,5R)-2,5-dimethyl-4-((R)-1-(quinoxalin-6-yl)ethyl)piperazin-1-yl)-4-methyl-2,4-dihydro-5H-pyrazolo[4,3-b]pyridin-5-one] were, in that order, 66.1 µM and 0.09 µM.
